Assay results as given in paper PMC11314561, “Design and Synthesis of Novel Aminoindazole-pyrrolo[2,3-b]pyridine Inhibitors of IKKα That Selectively Perturb Cellular Non-Canonical NF-κB Signalling” (Molecules, 2024).

Key:
IKKα = molecular target: T1, IKKα (Homo sapiens, UniProt O15111); experiment: DELFIA kinase assay, IKKα; format: biochemical; conditions: DELFIA kinase assay
T1 sequence (O15111 1-745): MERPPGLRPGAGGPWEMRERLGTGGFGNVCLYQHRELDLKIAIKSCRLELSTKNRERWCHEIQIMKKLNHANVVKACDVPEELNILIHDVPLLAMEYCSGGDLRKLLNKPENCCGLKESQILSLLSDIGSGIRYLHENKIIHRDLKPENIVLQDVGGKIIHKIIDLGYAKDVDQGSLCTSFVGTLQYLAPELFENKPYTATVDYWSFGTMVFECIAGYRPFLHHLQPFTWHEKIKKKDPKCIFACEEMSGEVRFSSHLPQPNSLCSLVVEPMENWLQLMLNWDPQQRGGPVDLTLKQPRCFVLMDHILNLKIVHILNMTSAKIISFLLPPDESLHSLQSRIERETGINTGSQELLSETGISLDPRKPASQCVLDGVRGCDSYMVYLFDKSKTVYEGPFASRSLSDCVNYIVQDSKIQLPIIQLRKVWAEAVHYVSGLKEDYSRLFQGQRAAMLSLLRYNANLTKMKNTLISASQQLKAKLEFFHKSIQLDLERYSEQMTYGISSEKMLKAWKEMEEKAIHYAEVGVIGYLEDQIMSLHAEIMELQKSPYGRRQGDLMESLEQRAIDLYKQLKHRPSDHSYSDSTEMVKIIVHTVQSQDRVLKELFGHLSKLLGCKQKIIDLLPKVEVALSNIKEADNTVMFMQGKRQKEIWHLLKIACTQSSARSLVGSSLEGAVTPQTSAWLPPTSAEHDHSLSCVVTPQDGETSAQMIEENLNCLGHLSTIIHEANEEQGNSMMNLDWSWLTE
Text: To examine the pyrrolo[2,3-b]pyridines as an alternative scaffold, we adopted the AIPP core because it had similar dimensions to SU909 (1), with HBD/HBA motifs positioned at the scaffold extremities to interact with both the hinge region and the G-loop wall of IKKα, a rationale we had previously proposed as the basis for imparting selectivity. A preliminary set of AIPP derivatives was designed and synthesised to explore its utility as an IKK-targeting scaffold, whilst incorporating additional functionality through which to introduce selectivity for the IKKα isoform (2–4; Figure 3). This was achieved by initially adopting two different approaches: either appending a hydrophobic moiety to the pyrrolo[2,3-b]pyridine motif as a fused form to afford the tricyclic derivatives 2 and 3, or as a phenyl substituent to introduce flexibility with respect to the central pyrrolo[2,3-b]pyridine moiety in 4. When assessed against IKKα and IKKβ using our in-house DELFIA kinase assay […] The pyrrolo[2,3-b]pyridine was bound to the hinge region in the classical HBA/HBD motif with the GK+3 amide backbone, whilst the aminoindazole projected towards the top of the pocket to interact with the G-loop (Figure 4A). […] In both isoforms, the 2-phenyl moiety protruded away from the hinge towards the exposed solvent area.
(§1) IKKα and IKKβ inhibitory activity were determined using a dissociation-enhanced ligand fluorescent immunoassay (DELFIA) based on the protocol of HTScan™ IKKβ Kinase Assay (Cell Signaling Technology, Danvers, MA, USA) as described in [24].

IKKβ = molecular target: T2, IKKβ (Homo sapiens, UniProt O14920); experiment: DELFIA kinase assay, IKKβ; format: biochemical; conditions: read-out: Ki Values IKKβ
T2 sequence (O14920 1-756): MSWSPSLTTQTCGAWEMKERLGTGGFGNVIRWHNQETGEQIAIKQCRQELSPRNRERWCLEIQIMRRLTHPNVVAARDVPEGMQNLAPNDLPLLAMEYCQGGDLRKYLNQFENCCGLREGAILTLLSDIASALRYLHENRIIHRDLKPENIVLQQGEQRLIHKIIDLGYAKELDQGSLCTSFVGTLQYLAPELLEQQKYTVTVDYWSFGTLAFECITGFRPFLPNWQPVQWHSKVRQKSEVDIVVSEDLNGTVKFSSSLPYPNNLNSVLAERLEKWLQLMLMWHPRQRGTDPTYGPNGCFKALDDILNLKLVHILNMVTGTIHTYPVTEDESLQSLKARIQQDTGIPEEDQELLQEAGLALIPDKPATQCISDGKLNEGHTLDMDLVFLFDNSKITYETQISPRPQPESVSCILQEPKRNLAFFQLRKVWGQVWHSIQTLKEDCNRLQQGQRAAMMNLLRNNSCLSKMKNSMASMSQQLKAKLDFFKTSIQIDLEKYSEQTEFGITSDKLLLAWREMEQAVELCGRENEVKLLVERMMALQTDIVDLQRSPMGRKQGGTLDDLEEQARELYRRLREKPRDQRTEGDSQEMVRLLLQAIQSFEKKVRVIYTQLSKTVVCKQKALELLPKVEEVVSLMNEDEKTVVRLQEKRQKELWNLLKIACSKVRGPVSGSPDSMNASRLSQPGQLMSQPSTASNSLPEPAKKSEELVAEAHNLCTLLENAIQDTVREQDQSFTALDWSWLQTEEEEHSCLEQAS
Description: as §1

| SMILES | Ki (IKKα) [nM] | Ki (IKKβ) [nM] |
| --- | --- | --- |
| Nc1n[nH]c2ccc(-c3ccnc4[nH]c(-c5cccc(CNc6ccccc6)c5)cc34)cc12 [Compound 5p] | 35 | 470 |
| CCOc1ccccc1-c1cc2c(-c3ccc4[nH]nc(N)c4c3)ccnc2[nH]1 [Compound 5b] | 8 | 86 |
| Nc1n[nH]c2ccc(-c3ccnc4[nH]c(-c5ccccc5O)cc34)cc12 [Compound 5a] | 4 | 42 |
| Nc1n[nH]c2ccc(-c3ccnc4[nH]c5c(c34)CCCC5)cc12 [Compound 2, 5-(6,7,8,9-Tetrahydro-5H-pyrido[2,3-b]indol-4-yl)-1H-indazol-3-amine] | 2 | 77 |
| Nc1n[nH]c2ccc(-c3ccnc4[nH]c(-c5cccc(OCc6ccccn6)c5)cc34)cc12 [Compound 5w] | 16 | 402 |
| Cc1ccc(S(=O)(=O)Nc2cccc(-c3cc4c(-c5ccc6[nH]nc(N)c6c5)ccnc4[nH]3)c2)cc1 [Compound 5t] | 10 | 1050 |
| Nc1n[nH]c2ccc(-c3ccnc4[nH]c(-c5cc(F)cc(OCc6ccccc6)c5)cc34)cc12 [Compound 6a] | 59 | 5030 |
| Nc1n[nH]c2ccc(-c3ccnc4[nH]c(-c5cc(F)nc(SCc6ccccc6)c5)cc34)cc12 [Compound 6i] | 127 | 3000 |
| CS(=O)(=O)Nc1cccc(-c2cc3c(-c4ccc5[nH]nc(N)c5c4)ccnc3[nH]2)c1 [Compound 5j] | 3 | 109 |
| Nc1n[nH]c2ccc(-c3ccnc4[nH]c(-c5cccc(OCCN6CCOCC6)c5)cc34)cc12 [Compound 5y] | 9 | 29 |
| COc1cccc(-c2cc3c(-c4ccc5[nH]nc(N)c5c4)ccnc3[nH]2)c1 [Compound 5e] | 5 | 40 |
| Nc1n[nH]c2ccc(-c3ccnc4[nH]c(-c5cccc(OCC6CCOCC6)c5)cc34)cc12 [Compound 5x] | 8 | 122 |
| Nc1n[nH]c2ccc(-c3ccnc4[nH]c(-c5ccc(OCc6ccccc6)cc5)cc34)cc12 [Compound 5s] | 16 | 189 |
| Nc1cccc(-c2cc3c(-c4ccc5[nH]nc(N)c5c4)ccnc3[nH]2)c1 [Compound 5c] | 5 | 28 |
| CN1CCN(C(=O)c2cccc(-c3cc4c(-c5ccc6[nH]nc(N)c6c5)ccnc4[nH]3)c2)CC1 [Compound 5v] | 24 | 215 |
| COCCC(=O)Nc1cccc(-c2cc3c(-c4ccc5[nH]nc(N)c5c4)ccnc3[nH]2)c1 [Compound 5l] | 6 | 25 |
| CC(C)COc1cccc(-c2cc3c(-c4ccc5[nH]nc(N)c5c4)ccnc3[nH]2)c1 [Compound 5o] | 19 | 458 |
| Nc1n[nH]c2ccc(-c3ccnc4[nH]c(-c5cc(O)cc(F)c5)cc34)cc12 [Compound 5f] | 4 | 42 |

Further lines, results first:

| Ki (IKKα) [nM] | Ki (IKKβ) [nM] | SMILES |
| --- | --- | --- |
| 3 | 32 | COc1cc(F)cc(-c2cc3c(-c4ccc5[nH]nc(N)c5c4)ccnc3[nH]2)c1 [Compound 5g] |
| 43 | 166 | COc1ccc(COc2cccc(-c3cc4c(-c5ccc6[nH]nc(N)c6c5)ccnc4[nH]3)c2)cc1 [Compound 5z] |
| 25 | 149 | Nc1n[nH]c2ccc(-c3ccnc4[nH]c(-c5cccc(S(=O)(=O)N6CCOCC6)c5)cc34)cc12 [Compound 5aa] |
| 15 | 107 | COCCNC(=O)c1cccc(-c2cc3c(-c4ccc5[nH]nc(N)c5c4)ccnc3[nH]2)c1 [Compound 5m] |
| 3 | 5 | Nc1n[nH]c2ccc(-c3ccnc4[nH]c5ccccc5c34)cc12 [Compound 3] |
| 5 | 159 | NC(=O)c1cccc(-c2cc3c(-c4ccc5[nH]nc(N)c5c4)ccnc3[nH]2)c1 [Compound 5i] |
| 3 | 36 | CS(=O)(=O)c1cccc(-c2cc3c(-c4ccc5[nH]nc(N)c5c4)ccnc3[nH]2)c1 [Compound 5k] |
| 57 | 1060 | Nc1n[nH]c2ccc(-c3ccnc4[nH]c(-c5ccccc5OCc5ccccc5)cc34)cc12 [Compound 5q] |
